{
  "source": "patent US9387221B2",
  "about": "“SDF-1 binding nucleic acids and the use thereof in cancer treatment” (NOXXON Pharma AG, priority 2010, dated 2016)",
  "key": {"Human CXCR7": {"system": "Human CXCR7", "assay": "CXCR7 β-arrestin complementation assay (PathHunter), CHO cells", "type": "cell-based", "conditions": "10 nM human SDF-1, 90 minutes; read-out: IC50, CXCR7 activation (β-galactosidase)", "procedure": "Besides CXCR4, SDF-1 also binds to the chemokine receptor CXCR7. The inhibitory potential of SDF-1-binding Spiegelmer NOX-A12 towards CXCR7 was tested in a complementation assay with CHO cells stably expressing CXCR7 and β-arrestin both fused to a fragment of β-galactosidase (PathHunter™—β-arrestin assay, DiscoveRX, CA, USA). Upon SDF-1 binding β-arrestin complexed with CXCR7 and thus led to complementation and activation of the β-galactosidase which was measured with a chemiluminescence substrate.\nPathHunter eXpress CHO-K1 Human CXCR7 β-arrestin cells were plated for 48 hours in OCC2 Medium and stimulated with 10 nM SDF-1 and various concentrations of SDF-1-binding Spiegelmer NOX-A12 for 90 minutes. Following stimulation, signal was detected using the PathHUnter Detection Kit and the manufacturer's recommended protocol (DiscoveRX, CA, USA)."}, "[1]": {"system": "SDF-1 induced sprouting, rings from rat aorta", "assay": "Aortic ring sprouting assay", "type": "cell-based", "conditions": "10 nM SDF-1 + 1 μM Spiegelmer, 6 days; listed as 193-G2-012-5′-PEG", "procedure": "After 6 to 7 days, sprouting (i.e. outgrowth of endothelial cells) was analysed by taking pictures and determining a sprouting index.\nAortae from male rats were obtained from Bagheri Life sciences (Berlin, Germany). The aortae were prepared freshly and transported on ice in MCDB 131-Medium (Invitrogen, Karlsruhe, Germany) containing 50 units/ml penicillin, 50 μg/ml streptomycin (both Invitrogen, Karlsruhe, Germany) and 2.5 μg/ml fungizone (Cambrex, USA).\nFor an experiment a single aorta was transferred to a cell culture dish together with the medium and residual connective tissue was removed. Then the aorta was cut with a scalpel into rings of about 1 to 2 mm length. The rings were washed intensively (at least five times) in Medium199 (Invitrogen, Karlsruhe, Germany) and then placed in wells of a 24 well plate, containing 450 μl of collagen solution per well. […]\nSprouting was documented by taking pictures with a digital camera. […] Pictures were analysed with the Scion Image image processing software. […] A plot histogram along this line was generated by the software, histograms were printed and peaks (representing sprouts crossing the line) were counted. […] 4 to 5 rings per condition were evaluated. […]"}, "Jurkat cells": {"system": "Jurkat cells", "assay": "Proliferation of Jurkat cells in coculture with stromal MS-5 cells", "type": "cell-based, human", "conditions": "40 hours", "procedure": "Aim of the experiment was to show whether SDF-1 binding Spiegelmer NOX-A12 has an impact on proliferation of leukemia cells in coculture with bone marrow (abbr. BM) stromal cells. Murine stromal MS-5 cells secreting SDF-1 were incubated with SDF-1 binding Spiegelmer NOX-A12 or the non-functional Spiegelmer revNOX-A12. The leukemic T-cell line Jurkat was added to the confluent stromal cell layer and incubated for 40 hours at 37° C. and 5% CO2. Cell numbers were quantified by Flow Cytometry using the Guava EasyCyte and ViaCount Reagent.\nThe murine stromal cell line MS-5 (ACC 441) were purchased from the DSMZ and were cultured in MEM alpha GlutaMAX (Invitrogen) with 10% FBS and penicillin-streptomycin. For proliferation coculture experiments stromal MS-5 cells were seeded the day before onto 24-well plates (the inner eight wells) at a concentration of 8×10^4/mL/well in MEM alpha GlutaMAX medium (+10% FBS) and incubated at 37° C. in 5% CO2. The confluent stromal cell layer was washed and 0.5 mL RPMI medium 1640 (+1% FBS) was added to the wells. […] 2×10^5 Jurkat cells (logarithmic growth phase; washed once) in RPMI medium 1640 (+1% FBS) were added to the confluent stromal cell layer and incubated for […] at 37° C. with 5% CO2. […] Cell viability and cell number were determined by Flow Cytometry using the Guava EasyCyte 6HT/2L."}},
  "note": "Entries after “also recorded” stand apart in the source; their conditions may differ. {PEG40k} = 40 kDa polyethylene glycol",
  "data": [
    {"substance": "5′-40 kDa-PEG-GCGUGGUGUGAUCUAGAUGUAUUGGCUGAUCCUAGUCAGGUACGC (5' {PEG40k}, sugars by position and backbone not given here) [NOX-A12]", "values": [
      {"measurement": "IC50", "setting": "Human CXCR7", "value": 5.4, "unit": "nM"},
      {"measurement": "blockage of SDF-1 induced sprouting (sprouting index)", "setting": "[1]", "value": "significantly different from that for SDF-1; also recorded: could be blocked"},
      {"measurement": "effect on Jurkat cell number", "setting": "Jurkat cells; 1 nM", "value": "no effect"},
      {"measurement": "reduction of Jurkat cell number", "setting": "Jurkat cells; 10 or 100 nM", "value": "up to 20%"}
    ]}
  ]
}
